Where two headings read alike, the source gives them in different places. Blank lines part the entries; values can stand above or below the molecule they belong to.
How the values were obtained:
PDE10 [1] = target: T1, PDE10 (Homo sapiens, UniProt O76083, E580G); experiment: PDE10 inhibition by isozyme-specific PDE inhibitors, cAMP as substrate; assay type: biochemical
T1 construct: The entire open reading frame of the PDE10 cDNA (clone FB94a) was placed into a yeast ADH vector; made in house; host or cells: Saccharomyces cerevisiae strain BJ2-54 (no endogenous PDE activity); 100,000 x g supernatant of the lysate, not purified
Experimental: The entire open reading frame of the PDE10 cDNA (clone FB94a) was placed into a yeast ADH vector including the alcohol dehydrogenase promoter. The construct was built in two steps.
Following transformation into BJ2-54, a yeast strain lacking endogenous PDE activity, a colony was selected, streaked out on SC-leu plates and a single colony carrying the PDE10 construct was chosen for further characterization. Following overnight growth in SC-leu media the culture was diluted 1:250 in fresh SC-leu and grown overnight at 30° C. until it reached a density of 10^7 cells/ml. The cells were collected by centrifugation, washed once with YEP 3% glycerol media, resuspended in YEP containing 3% glycerol, and grown at 30° C. for another 24 hours. The cells were harvested by centrifugation, washed with water, and frozen at −70° C. until use. Prior to use, an aliquot of the yeast extract was analyzed by SDS PAGE. A protein specific to yeast carrying the PDE10 expression construct that migrated on the SDS PAGE gels with the expected mobility (55.5 kDa) was observed by Coomassie blue staining.
Yeast cells (1×10^10) were thawed with 200 μg/ml each of pepstatin A, leupeptin, and aprotinin 1 mM DTT, and 20 μg/ml calpain inhibitors (I and II). Two hundred μl of glass beads (0.5 mm, acid washed) were added, and the mixture was vortexed for eight cycles of 30 seconds each. Samples were cooled for 4.5 minutes at 4° C. between cycles. After lysis, 0.8 ml lysis buffer was added, the lysate separated from the beads, and the lysate centrifuged for 30 minutes at 100,000×g in a Beckman TL-100 tabletop centrifuge. The supernatant was aliquoted, frozen in dry ice/ethanol, and stored at −70° C.
Kinetic assays were performed on a BIOMEK® 1000 programmable robotic station (Beckman Instruments). […] The highest nucleotide concentration contained 1 to 1.5 million Cerenkov counts of ^32P-labeled substrate per assay. […] The enzyme dilution buffer consisted of 25 mM Tris-HCl pH 8.9, 5 μM ZnSO4 5 mM MgCl2, 0.1 mM DTT, 100 mM NaCl and 0.1 mg/ml BSA (Calbiochem; fatty acid free). Activity at each substrate concentration was derived from a linear fit of successive four-fold enzyme dilutions across the plate.
Assays were performed at 30° C. for 15 minutes. After 12 minutes, 5 μl snake venom from Crotalus atrox (15 mg/ml protein) was added to each reaction. Assays were stopped by addition 200 μl of charcoal suspension (25 mg/ml activated charcoal in 0.1 M monobasic potassium phosphate). The plate was centrifuged at 2600 rpm, and 200 μl of each supernatant was transferred into Microbeta® counting plates and counted on a WALLAC Microbeta® by Cerenkov counting. Data were evaluated with a predesigned Microsoft Excel® Spreadsheet, and the kinetic parameters were fitted to a Michaelis-Menton model using the program Table Curve® from Jandel Scientific.

PDE2 = PDE2 (Homo sapiens, UniProt O00408); details: target family PDE2; Podzuweit et al. 1995; cited from earlier work
non-specific = details: Coste and Grodin 1995, read-out: Target Family IC50; cited from earlier work
PDE4 = details: target family PDE4; Bolger et al. 1993; cited from earlier work
PDE10 [2] = target: T1, PDE10; experiment: Kinetic assays of recombinant PDE10 yeast extract (cAMP and cGMP hydrolysis); assay type: biochemical
PDE3 = details: target family PDE3; Manganiello et al. 1990; cited from earlier work
PDE5 = PDE5 (Homo sapiens, UniProt O76074); details: target family PDE5; Coste and Grodin 1995; cited from earlier work
[3] = cAMP as substrate, recombinant PDE10 (clone FB94a) yeast extract

T1 sequence (O76083 1-466 isoform O76083-3 E453G): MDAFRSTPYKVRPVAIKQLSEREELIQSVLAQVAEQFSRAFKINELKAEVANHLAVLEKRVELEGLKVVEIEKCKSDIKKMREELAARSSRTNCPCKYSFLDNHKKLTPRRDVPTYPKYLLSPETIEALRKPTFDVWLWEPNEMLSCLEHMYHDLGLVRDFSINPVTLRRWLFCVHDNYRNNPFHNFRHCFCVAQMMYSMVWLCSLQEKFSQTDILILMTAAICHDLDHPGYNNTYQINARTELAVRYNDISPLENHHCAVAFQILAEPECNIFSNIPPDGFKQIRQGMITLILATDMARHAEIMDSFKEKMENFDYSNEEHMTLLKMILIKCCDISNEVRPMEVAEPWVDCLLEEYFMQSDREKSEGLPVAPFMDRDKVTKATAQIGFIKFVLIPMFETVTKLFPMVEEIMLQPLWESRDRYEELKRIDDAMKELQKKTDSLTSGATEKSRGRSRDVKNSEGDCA
Sequence of PDE2 (O00408 whole entry): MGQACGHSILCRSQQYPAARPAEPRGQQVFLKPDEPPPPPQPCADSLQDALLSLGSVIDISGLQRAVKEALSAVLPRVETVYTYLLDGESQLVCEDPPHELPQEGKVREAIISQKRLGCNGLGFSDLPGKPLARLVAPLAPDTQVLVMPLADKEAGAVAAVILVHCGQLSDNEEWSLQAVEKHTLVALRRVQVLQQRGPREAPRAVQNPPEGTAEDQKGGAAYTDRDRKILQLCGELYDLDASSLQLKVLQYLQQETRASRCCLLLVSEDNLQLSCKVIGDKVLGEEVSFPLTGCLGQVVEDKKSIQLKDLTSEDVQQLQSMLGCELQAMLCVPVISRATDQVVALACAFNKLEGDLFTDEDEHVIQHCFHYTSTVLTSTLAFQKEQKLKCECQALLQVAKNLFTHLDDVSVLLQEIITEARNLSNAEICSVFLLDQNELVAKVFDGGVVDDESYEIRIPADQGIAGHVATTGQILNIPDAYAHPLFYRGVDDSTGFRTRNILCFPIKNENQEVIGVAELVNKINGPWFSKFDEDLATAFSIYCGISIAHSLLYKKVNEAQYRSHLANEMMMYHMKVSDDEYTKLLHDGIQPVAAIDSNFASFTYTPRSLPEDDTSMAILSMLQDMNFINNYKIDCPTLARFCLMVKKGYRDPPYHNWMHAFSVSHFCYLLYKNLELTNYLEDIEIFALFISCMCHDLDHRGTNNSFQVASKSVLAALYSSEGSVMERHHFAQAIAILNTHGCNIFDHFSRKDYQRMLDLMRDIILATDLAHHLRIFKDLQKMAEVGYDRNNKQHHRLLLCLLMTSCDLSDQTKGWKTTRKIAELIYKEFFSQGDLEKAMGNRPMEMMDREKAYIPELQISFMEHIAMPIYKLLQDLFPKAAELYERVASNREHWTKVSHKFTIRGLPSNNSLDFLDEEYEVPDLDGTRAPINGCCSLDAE

IC50 (PDE10 [1]): 477 µM
Molecule: CCCCCCC(C(C)O)n1cnc2c(N)ncnc21 (stereo not drawn) [EHNA, erythro-9-(2-hydroxy-3-nonyl)adenine]
IC50 (PDE2): 0.8 µM

IC50 (PDE10 [1]; [3]): 59 µM
Molecule: isobutyl methyl xanthine [IBMX]
IC50 (non-specific): 2 to 20 µM

IC50 (PDE10 [1]): 529 µM
Molecule: COc1ccc(C2CNC(=O)C2)cc1OC1CCCC1 (stereo not drawn) [Rolipram, rolipram]

hydrolytic activity in the extract (PDE10 [2]; PDE10 yeast extract): 0.035 (±0.01) μmol/min/mg
Km (PDE10 [2]; substrate of PDE10, 30° C., Michaelis-Menton fit): 5 nM
Molecule: Nc1nc2c(ncn2[C@@H]2O[C@@H]3COP(=O)(O)O[C@H]3[C@H]2O)c(=O)[nH]1 [cGMP]

Molecule: CN(C(=O)CCCOc1ccc2[nH]c(=O)ccc2c1)C1CCCCC1 [Cilostamide]
IC50 (PDE10 [1]): 100 µM
IC50 (PDE3): 0.04 to 0.9 µM

IC50 (PDE10 [1]; [3]): 9 µM
Molecule: CCCOc1ccc(NS(C)(=O)=O)cc1-c1nc2c(c(C)nn2C)c(=O)[nH]1 [DMPPO]
IC50 (PDE5): 0.003 µM

— US6734003B2, “Phosphodiesterase 10” (Icos Corporation, priority 1998, dated 2004)
